{"source": "patent US20050273177A1", "about": "“Prosthetic device having drug delivery properties” (priority 2004, published 2005)", "assay": "In vitro PGE-1 elution from coated stents overlaid with a permeable polymer membrane, measured by HPLC", "assay_type": "physicochemical", "method": "Various materials presently used in pharmaceutical preparations as solubilizers, crystallization inhibitors, suspension stabilizers and lyophilization agents were mixed with PGE-1. The mixtures were dissolved in solvent systems composed of ethanol, chloroform, water, or mixtures thereof. Prior to coating, stents (provided by different stent manufacturers) were cleaned by sonification in absolute ethanol for thirty minutes, and dried. Each stent was weighed before and after coating. The amount of PGE-1 in the coating solution was determined by high performance liquid chromatography analysis (HPLC), and used to calculate the percent by weight of PGE-1 on the stent. To confirm this value, the coating was dissolved (from the stent) and the PGE-1 content analyzed by HPLC.\nDrug coatings on the stents were assessed using scanning electron microscopy (SEM) for: (a) smoothness, (b) uniformity, and (c) lack of cracking. Stents that met these criteria, were overlaid with a thin membrane of non-erodable polymer matrix to retard the release of PGE-1 from the surface of the stents. Vapor-deposition of the polymer matrix was carried out according to the manufacturer's protocol, and the thickness of the polymer matrix membrane was measured using a Tencor device.\nUsing the most desirable coating combination, twenty coronary stents were coated with either 100 micrograms or 250 micrograms of PGE-1, and overlaid with the polymer matrix membrane. Five stents from each drug concentration were expanded by insertion of a balloon catheter. The stents were examined by SEM after deposition of the pharmaceutical layer 14, after applying the membrane 16, and after expansion of the stents 12.\nPGE-1 elution profiles were determined for each group of stents 12. In vitro PGE-1 release curves were performed using HPLC. Drug elution profiles were measured in phosphate buffered saline (pH 7.4) using a LabQuake 360° degree rotator, at ambient temperature. At each time point, the stents were removed from the one milliliter sample (typically, after 24 hours) and transferred to the next aliquot. HPLC analysis of the eluent was performed using a Waters Alliance system equipped with a 996 photodiode array detector.\nHPLC Program Conditions/Settings:\nColumn: 4.6 mm×150 mm Reverse Phase C18\nPhoto-diode array UV detector set to scan 190 to 300 nm\nSolvent system: 35% Acetonitrile/65% water with 0.1% acetic acid\nIn Example 2 a second set of twenty stents were coated as described above, except the polymer membrane overcoat 16 was twice the thickness as the former."}
{"smiles": "CCCCC[C@H](O)/C=C/[C@H]1[C@H](O)CC(=O)[C@@H]1CCCCCCC(=O)O", "note": "[PGE-1, prostaglandin E-1]", "values": [{"measurement": "Period of initial burst of PGE-1 release", "setting": "FIGS. 2A and 2B, thinner membrane, 100 or 250 μg PGE-1", "result": "48-96 hours"}, {"measurement": "Duration of slow, sustained release of the drug", "setting": "FIGS. 2A and 2B, thinner membrane, after the initial burst", "result": "approximately sixty"}, {"measurement": "Release profile with thicker polymer overcoat compared with thinner membrane", "setting": "FIGS. 3A and 3B, membrane twice the thickness", "result": "initial release of PGE-1 is delayed and the overall amount of PGE-1 eluted from the stents 12 over time is reduced"}, {"measurement": "PGE-1 Released (%)", "setting": "Study 1, 73 days, expanded stent coated with 100 μg PGE-1, PBS pH 7.4, ambient temperature", "result": 82, "unit": "%"}, {"measurement": "PGE-1 Released (%)", "setting": "Study 1, 73 days, expanded stent coated with 250 μg PGE-1, PBS pH 7.4, ambient temperature", "result": 83, "unit": "%"}, {"measurement": "PGE-1 Released (%)", "setting": "Study 1, 73 days, unexpanded stent coated with 100 μg PGE-1, PBS pH 7.4, ambient temperature", "result": 37, "unit": "%"}, {"measurement": "PGE-1 Released (%)", "setting": "Study 1, 73 days, unexpanded stent coated with 250 μg PGE-1, PBS pH 7.4, ambient temperature", "result": 46, "unit": "%"}, {"measurement": "PGE-1 Released (%)", "setting": "Study 2 (membrane twice the thickness), 35 days, expanded stent coated with 100 μg PGE-1, PBS pH 7.4", "result": 71, "unit": "%"}, {"measurement": "PGE-1 Released (%)", "setting": "Study 2 (membrane twice the thickness), 35 days, expanded stent coated with 250 μg PGE-1, PBS pH 7.4", "result": 26, "unit": "%"}, {"measurement": "PGE-1 Released (%)", "setting": "Study 2 (membrane twice the thickness), 35 days, unexpanded stent coated with 100 μg PGE-1, PBS pH 7.4", "result": 19, "unit": "%"}, {"measurement": "PGE-1 Released (%)", "setting": "Study 2 (membrane twice the thickness), 35 days, unexpanded stent coated with 250 μg PGE-1, PBS pH 7.4", "result": 26, "unit": "%"}]}
